Zone of inhibition data for 15 molecules are collected here from ChEMBL document CHEMBL4699440, “Comprehensive review on the anti-bacterial activity of 1,2,3-triazole hybrids” (Eur J Med Chem, 2019).

Structures are written as SMILES.

One assay has as its system Escherichia coli. The experiment in a line: Antibacterial activity against Escherichia coli assessed as inhibition zone at 10 mg/ml. Type of assay: functional. Particulars: read-out: IZ.
As to `Cc1ccc2nc(Cl)c(Cn3cc(COc4ccc(Cl)cc4)nn3)cc2c1`, the zone of inhibition at 10000 µg/mL was found to be 7 mm.
`CC(=O)Nc1ccc(OCc2cn(Cc3cc4cc(C)ccc4nc3Cl)nn2)cc1`: the zone of inhibition at 10000 µg/mL came out at 7 mm.
The same measure, in the same setting: the result for `COc1ccc2nc(Cl)c(Cn3cc(COc4ccc(Cl)c(C)c4)nn3)cc2c1` reads 7 mm.
On the same count and under the same terms, the result for `O=[N+]([O-])c1ccc(OCc2cn(Cc3cc4ccccc4nc3Cl)nn2)cc1` reads 7 mm; that for `COc1ccc2nc(Cl)c(Cn3cc(COc4ccc([N+](=O)[O-])cc4)nn3)cc2c1`, 7 mm.
Same read-out and setting: the result for `Cc1cc(OCc2cn(Cc3cc4ccccc4nc3Cl)nn2)ccc1Cl` reads 7 mm; that for `Cc1ccc2nc(Cl)c(Cn3cc(COc4ccccc4Cl)nn3)cc2c1`, 7 mm; that for `COc1ccc2nc(Cl)c(Cn3cc(COc4ccc(Cl)cc4)nn3)cc2c1`, 7 mm.
For the molecule `Cc1ccc(OCc2cn(Cc3cc4ccccc4nc3Cl)nn2)cc1`, the zone of inhibition at 10000 µg/mL is 7 mm.
For the molecule `COc1ccc2nc(Cl)c(Cn3cc(COc4ccccc4Cl)nn3)cc2c1`, the zone of inhibition at 10000 µg/mL worked out at 7 mm.
On the same count and under the same terms, the value for `Clc1nc2ccccc2cc1Cn1cc(COc2ccccc2)nn1` was 7 mm; that for `COc1ccc2nc(Cl)c(Cn3cc(COc4ccc(NC(C)=O)cc4)nn3)cc2c1` was 7 mm.
Consider `CC(=O)Nc1ccc(OCc2cn(Cc3cc4ccccc4nc3Cl)nn2)cc1`, for which the zone of inhibition at 10000 µg/mL is 7 mm.
Same read-out and setting: the value for `Cc1ccc2nc(Cl)c(Cn3cc(COc4ccc(Cl)c(C)c4)nn3)cc2c1` was 7 mm; that for `Cc1ccc2nc(Cl)c(Cn3cc(COc4ccc([N+](=O)[O-])cc4)nn3)cc2c1` was 7 mm.

In another assay the test system is Klebsiella pneumoniae. The experiment in a line: Antibacterial activity against Klebsiella pneumoniae assessed as inhibition zone at 10 mg/ml. Type of assay: functional. Conditions: read-out: IZ.
In the case of `Cc1ccc2nc(Cl)c(Cn3cc(COc4ccc(Cl)cc4)nn3)cc2c1`, the zone of inhibition at 10000 µg/mL was 7 mm.
On to `CC(=O)Nc1ccc(OCc2cn(Cc3cc4cc(C)ccc4nc3Cl)nn2)cc1`, for which the zone of inhibition at 10000 µg/mL was 7 mm.
In the case of `COc1ccc2nc(Cl)c(Cn3cc(COc4ccc(Cl)c(C)c4)nn3)cc2c1`, the zone of inhibition at 10000 µg/mL is 7 mm.
As to `O=[N+]([O-])c1ccc(OCc2cn(Cc3cc4ccccc4nc3Cl)nn2)cc1`, the zone of inhibition at 10000 µg/mL came to 7 mm.
On the same count and under the same terms, the value for `COc1ccc2nc(Cl)c(Cn3cc(COc4ccc([N+](=O)[O-])cc4)nn3)cc2c1` was 7 mm; that for `Cc1cc(OCc2cn(Cc3cc4ccccc4nc3Cl)nn2)ccc1Cl` was 7 mm.
Same read-out and setting: the result for `Cc1ccc2nc(Cl)c(Cn3cc(COc4ccccc4Cl)nn3)cc2c1` reads 7 mm.
The same measure, in the same setting: the value for `COc1ccc2nc(Cl)c(Cn3cc(COc4ccc(Cl)cc4)nn3)cc2c1` was 7 mm.
Consider `Cc1ccc(OCc2cn(Cc3cc4ccccc4nc3Cl)nn2)cc1`, for which the zone of inhibition at 10000 µg/mL was determined as 7 mm.
With `COc1ccc2nc(Cl)c(Cn3cc(COc4ccccc4Cl)nn3)cc2c1`, the zone of inhibition at 10000 µg/mL was 7 mm.
On the same count and under the same terms, the value for `Clc1nc2ccccc2cc1Cn1cc(COc2ccccc2)nn1` was 7 mm.
As for `COc1ccc2nc(Cl)c(Cn3cc(COc4ccc(NC(C)=O)cc4)nn3)cc2c1`, the zone of inhibition at 10000 µg/mL is 7 mm.
For the molecule `CC(=O)Nc1ccc(OCc2cn(Cc3cc4ccccc4nc3Cl)nn2)cc1`, the zone of inhibition at 10000 µg/mL was 7 mm.
Still for that read-out and setting: the value for `Cc1ccc2nc(Cl)c(Cn3cc(COc4ccc(Cl)c(C)c4)nn3)cc2c1` was 7 mm; that for `Cc1ccc2nc(Cl)c(Cn3cc(COc4ccc([N+](=O)[O-])cc4)nn3)cc2c1` was 7 mm.

The subject of a further assay is Proteus vulgaris. The experiment in a line: Antibacterial activity against Proteus vulgaris assessed as inhibition zone at 10 mg/ml. Type of assay: functional. Particulars: read-out: IZ.
For the molecule `Cc1ccc2nc(Cl)c(Cn3cc(COc4ccc(Cl)cc4)nn3)cc2c1`, the zone of inhibition at 10000 µg/mL came to 7 mm.
Still for that read-out and setting: the result for `CC(=O)Nc1ccc(OCc2cn(Cc3cc4cc(C)ccc4nc3Cl)nn2)cc1` reads 7 mm.
As for `COc1ccc2nc(Cl)c(Cn3cc(COc4ccc(Cl)c(C)c4)nn3)cc2c1`, the zone of inhibition at 10000 µg/mL was determined as 7 mm.
Regarding `O=[N+]([O-])c1ccc(OCc2cn(Cc3cc4ccccc4nc3Cl)nn2)cc1`, the zone of inhibition at 10000 µg/mL was 7 mm.
Same read-out and setting: the result for `COc1ccc2nc(Cl)c(Cn3cc(COc4ccc([N+](=O)[O-])cc4)nn3)cc2c1` reads 7 mm; that for `Cc1cc(OCc2cn(Cc3cc4ccccc4nc3Cl)nn2)ccc1Cl`, 7 mm; that for `Cc1ccc2nc(Cl)c(Cn3cc(COc4ccccc4Cl)nn3)cc2c1`, 7 mm.
On the same count and under the same terms, the result for `COc1ccc2nc(Cl)c(Cn3cc(COc4ccc(Cl)cc4)nn3)cc2c1` reads 7 mm; that for `Cc1ccc(OCc2cn(Cc3cc4ccccc4nc3Cl)nn2)cc1`, 7 mm.
On to `COc1ccc2nc(Cl)c(Cn3cc(COc4ccccc4Cl)nn3)cc2c1`, for which the zone of inhibition at 10000 µg/mL came to 7 mm.
Regarding `Clc1nc2ccccc2cc1Cn1cc(COc2ccccc2)nn1`, the zone of inhibition at 10000 µg/mL was determined as 7 mm.
The same measure, in the same setting: the value for `COc1ccc2nc(Cl)c(Cn3cc(COc4ccc(NC(C)=O)cc4)nn3)cc2c1` was 7 mm; that for `CC(=O)Nc1ccc(OCc2cn(Cc3cc4ccccc4nc3Cl)nn2)cc1` was 7 mm; that for `Cc1ccc2nc(Cl)c(Cn3cc(COc4ccc(Cl)c(C)c4)nn3)cc2c1` was 7 mm.
Same read-out and setting: the value for `Cc1ccc2nc(Cl)c(Cn3cc(COc4ccc([N+](=O)[O-])cc4)nn3)cc2c1` was 7 mm.

In another assay the test system is Salmonella typhi. The experiment in a line: Antibacterial activity against Salmonella typhi assessed as inhibition zone at 10 mg/ml. It is filed as functional, Salmonella enterica subsp. enterica serovar Typhi. Conditions: Salmonella enterica, read-out: IZ.
For `Cc1ccc2nc(Cl)c(Cn3cc(COc4ccc(Cl)cc4)nn3)cc2c1`, the zone of inhibition at 10000 µg/mL was found to be 7 mm.
On the same count and under the same terms, the value for `CC(=O)Nc1ccc(OCc2cn(Cc3cc4cc(C)ccc4nc3Cl)nn2)cc1` was 7 mm; that for `COc1ccc2nc(Cl)c(Cn3cc(COc4ccc(Cl)c(C)c4)nn3)cc2c1` was 7 mm.
As to `O=[N+]([O-])c1ccc(OCc2cn(Cc3cc4ccccc4nc3Cl)nn2)cc1`, the zone of inhibition at 10000 µg/mL turned out to be 7 mm.
The same measure, in the same setting: the result for `COc1ccc2nc(Cl)c(Cn3cc(COc4ccc([N+](=O)[O-])cc4)nn3)cc2c1` reads 7 mm; that for `Cc1cc(OCc2cn(Cc3cc4ccccc4nc3Cl)nn2)ccc1Cl`, 7 mm.
For the molecule `Cc1ccc2nc(Cl)c(Cn3cc(COc4ccccc4Cl)nn3)cc2c1`, the zone of inhibition at 10000 µg/mL turned out to be 7 mm.
Still for that read-out and setting: the result for `COc1ccc2nc(Cl)c(Cn3cc(COc4ccc(Cl)cc4)nn3)cc2c1` reads 7 mm; that for `Cc1ccc(OCc2cn(Cc3cc4ccccc4nc3Cl)nn2)cc1`, 7 mm; that for `COc1ccc2nc(Cl)c(Cn3cc(COc4ccccc4Cl)nn3)cc2c1`, 7 mm.
With `Clc1nc2ccccc2cc1Cn1cc(COc2ccccc2)nn1`, the zone of inhibition at 10000 µg/mL worked out at 7 mm.
The same measure, in the same setting: the value for `COc1ccc2nc(Cl)c(Cn3cc(COc4ccc(NC(C)=O)cc4)nn3)cc2c1` was 7 mm.
Still for that read-out and setting: the value for `CC(=O)Nc1ccc(OCc2cn(Cc3cc4ccccc4nc3Cl)nn2)cc1` was 7 mm; that for `Cc1ccc2nc(Cl)c(Cn3cc(COc4ccc(Cl)c(C)c4)nn3)cc2c1` was 7 mm.
With `Cc1ccc2nc(Cl)c(Cn3cc(COc4ccc([N+](=O)[O-])cc4)nn3)cc2c1`, the zone of inhibition at 10000 µg/mL was determined as 7 mm.

In another assay the test system is Pseudomonas aeruginosa. As to the kind of experiment: Antibacterial activity against Pseudomonas aeruginosa assessed as inhibition zone at 10 mg/ml. It is filed as functional. Particulars: read-out: IZ.
On to `Cc1ccc2nc(Cl)c(Cn3cc(COc4ccc(Cl)cc4)nn3)cc2c1`, for which the zone of inhibition at 10000 µg/mL worked out at 7 mm.
As to `CC(=O)Nc1ccc(OCc2cn(Cc3cc4cc(C)ccc4nc3Cl)nn2)cc1`, the zone of inhibition at 10000 µg/mL was determined as 7 mm.
Same read-out and setting: the value for `COc1ccc2nc(Cl)c(Cn3cc(COc4ccc(Cl)c(C)c4)nn3)cc2c1` was 7 mm.
Same read-out and setting: the value for `O=[N+]([O-])c1ccc(OCc2cn(Cc3cc4ccccc4nc3Cl)nn2)cc1` was 7 mm.
Turning to `COc1ccc2nc(Cl)c(Cn3cc(COc4ccc([N+](=O)[O-])cc4)nn3)cc2c1`, the zone of inhibition at 10000 µg/mL amounted to 7 mm.
Still for that read-out and setting: the result for `Cc1cc(OCc2cn(Cc3cc4ccccc4nc3Cl)nn2)ccc1Cl` reads 7 mm; that for `Cc1ccc2nc(Cl)c(Cn3cc(COc4ccccc4Cl)nn3)cc2c1`, 7 mm; that for `COc1ccc2nc(Cl)c(Cn3cc(COc4ccc(Cl)cc4)nn3)cc2c1`, 7 mm.
For `Cc1ccc(OCc2cn(Cc3cc4ccccc4nc3Cl)nn2)cc1`, the zone of inhibition at 10000 µg/mL is 7 mm.
On to `COc1ccc2nc(Cl)c(Cn3cc(COc4ccccc4Cl)nn3)cc2c1`, for which the zone of inhibition at 10000 µg/mL was 7 mm.
Turning to `Clc1nc2ccccc2cc1Cn1cc(COc2ccccc2)nn1`, the zone of inhibition at 10000 µg/mL is 7 mm.
Still for that read-out and setting: the value for `COc1ccc2nc(Cl)c(Cn3cc(COc4ccc(NC(C)=O)cc4)nn3)cc2c1` was 7 mm; that for `CC(=O)Nc1ccc(OCc2cn(Cc3cc4ccccc4nc3Cl)nn2)cc1` was 7 mm.
Still for that read-out and setting: the value for `Cc1ccc2nc(Cl)c(Cn3cc(COc4ccc(Cl)c(C)c4)nn3)cc2c1` was 7 mm; that for `Cc1ccc2nc(Cl)c(Cn3cc(COc4ccc([N+](=O)[O-])cc4)nn3)cc2c1` was 7 mm.
